Results as given in patent US10189813B2, “Formylated N-heterocyclic derivatives as FGFR4 inhibitors” (NOVARTIS AG, priority 2015, dated 2019).

Columns and labels:
[1] = tested on: HuH-7 hepatocellular carcinoma cells; experiment: Methylene blue staining proliferation assay (MBS); type: cell-based; conditions: Homo sapiens, HuH-7 cells, 72 hours, read-out: HUH7 proliferation MBS
Protocol: Methylene Blue Staining Proliferation Assay (MBS):
The effect of compounds on cell proliferation is assessed using HuH-7 hepatocellular carcinoma cells obtained from the Japanese Collection of Research Bioresources Cell Bank (Cat# JCRB0403) and cultured in the vendor-recommended medium (DMEM high glucose (Amimed Cat#1-26F01-I), 10% foetal calf serum (Invitrogen Cat#16140-071), 1 mM sodium pyruvate (Amimed Cat#5-60F00-H), 1× Penicillin/Streptomycin (Amimed Cat#4-01F00-H)) at 37° C. in a humidified 5% CO2 incubator. […] 72 hours after compound addition, cells were fixed by adding 25 μL/well of 20% glutaraldehyde (Sigma Aldrich Cat# G400-4) and incubated for 10 minutes at room temperature. Cells were washed three times with H2O, 200 μL/well and stained with 100 μL/well 0.05% methylene blue (ABCR GmbH Cat# AB117904) for 10 minutes at room temperature. Cells were washed 3 times with H2O, 200 μL/well and then lysed by adding 200 μL/well of 3% HCl (Fluka Cat#84422) for 30 minutes at room temperature with shaking. Optical density was measured at A650 nm. The concentration of compound providing 50% of proliferation inhibition with respect to DMSO-treated cells was determined (IC50) using XLFit software.

[2] = target: BaF3-Tel-FGFR4 cells (TEL fused to cytoplasmic domain of FGFR4) (Homo sapiens, UniProt P22455); experiment: In vitro cellular kinase assay for FGFR4 (BaF3-Tel-FGFR4, MSD capture ELISA of tyrosine phosphorylation); conditions: 1 hour incubation
[3] = target: T1, FGFR4 (GST-FGFR4(388-802)) (Homo sapiens, UniProt P22455); experiment: In-vitro biochemical kinase assay for FGFR4 (Caliper mobility shift); conditions: 60 minutes at 30° C.
T1 construct: GST-FGFR4(388-802); GST (N); made in house; host or cells: insect cells
Protocol: In-Vitro Biochemical Kinase Assays for FGFR4
All assays were performed in 384 well microtiter plates. Each assay plate contained 8-point serial dilutions for 40 test compounds, as well as four 8-point serial dilutions of staurosporine as reference compound, plus 16 high and 16 low controls.
(§1) Liquid handling and incubation steps were done on an Innovadyne Nanodrop Express equipped with a robotic arm (Thermo CatX, Caliper Twister II) and an incubator (Liconic STX40, Thermo Cytomat 2C450). The assay plates were prepared by addition of 50 nI per well of compound solution in 90% DMSO. […] Kinase reactions were incubated at 30° C. for 60 minutes and subsequently terminated by addition of 16 μl per well of stop solution (100 mM HEPES pH 7.5, 5% DMSO, 0.1% Caliper coating reagent, 10 mM EDTA, and 0.015% Brij35). Plates with terminated kinase reactions were transferred to the Caliper LC3000 workstations for reading. Phosphorylated and unphosphorylated peptides were separated using the Caliper microfluidic mobility shift technology. Briefly, samples from terminated kinase reactions were applied to the chip. Analytes are transported through the chip by constant buffer flow and the migration of the substrate peptide is monitored by the fluorescence signal of its label. Phosphorylated peptide (product) and unphosphorylated peptide (substrate) are separated in an electric field by their charge/mass ratio. Kinase activities were calculated from the amounts of formed phospho-peptide. IC50 values were determined from percent inhibition values at different compound concentrations by non-linear regression analysis.
Preparation of Compound Dilutions
Test compounds were dissolved in DMSO (10 mM) and transferred into 1.4 mL flat bottom or V-shaped Matrix tubes carrying a unique 2D matrix. The stock solutions were stored at […] if not used immediately. For the test procedure the vials were defrosted and identified by a scanner whereby a working sheet was generated that guided the subsequent working steps.
Compound dilutions were made in 96 well plates. This format enabled the assay of maximally 40 individual test compounds at 8 concentrations (single points) including 4 reference compounds. The dilution protocol included the production of “pre-dilution plates”, “master plates” and “assay plates”.
96 polypropylene well plates were used as pre-dilution plates. A total of 4 pre-dilution plates were prepared including 10 test compounds each on the plate positions A1-A10, one standard compound at A11 and one DMSO control at A12. All dilution steps were done on a HamiltonSTAR robot.
These plates were used directly for the assay which was performed in a total volume of 9.05 μL.

[4] = target: T2, FGFR3 (411-806) (Homo sapiens, UniProt P22607); experiment: In vitro biochemical assay for FGFR3
T2 construct: FGFR3 (411-806)
Protocol: as §1
(§2) In vitro biochemical assays for FGFR1 (407-822), FGFR2 (406-821) and FGFR3 (411-806) were conducted in a similar manner to the in vitro biochemical assay for FGFR4 described above, using the indicated portions of the kinase domains. The following examples all produced IC50 values >10000 nM in the biochemical FGFR1, FGFR2 and FGFR3 assays: 2, 3, 4, 11, 13, 16, 17, 18, 20, 28, 30.

[5] = target: T3, FGFR2 (406-821) (Homo sapiens, UniProt P21802); experiment: In vitro biochemical assay for FGFR2
T3 construct: FGFR2 (406-821)
Protocol: as §1, §2

[6] = target: T4, FGFR1 (407-822) (Homo sapiens, UniProt P11362); experiment: In vitro biochemical assay for FGFR1
T4 construct: FGFR1 (407-822)
Protocol: as §1, §2

[7] = tested on: HuH-7 hepatocellular carcinoma cells; experiment: CellTiter Glo (CTG) proliferation/viability assay; type: cell-based; conditions: HuH-7 cells, 3 days, half-maximal growth inhibition (GI50), read-out: HUH7 proliferation CTG
Protocol: CellTiter Glo (CTG) Assay:
The functional effect of compounds on cell proliferation is assessed using HuH-7 hepatocellular carcinoma cells obtained from the Japanese Collection of Research Bioresources Cell Bank (Cat# JCRB0403) and cultured in the vendor-recommended medium (DMEM high glucose (Amimed Cat#1-26F01-I), 10% foetal calf serum (Invitrogen Cat#16140-071), 1 mM sodium pyruvate (Amimed Cat#5-60F00-H), 1× Penicillin/Streptomycin (Amimed Cat#4-01F00-H)) at 37° C. in a humidified 5% CO2 incubator. Compound-mediated suppression of cell proliferation/viability is assessed by quantification of cellular ATP levels using the CellTiter-Glo (CTG) reagent (Promega, Cat# G7573). Briefly, cells are seeded at 3′000 cells/well/80 μl fresh medium into tissue-culture-treated 96-well plates (Costar Cat#3904), followed by addition of 20 μl medium containing compound dilutions at 5-fold their final intended concentration. Dose-response effects are assessed by 3-fold serial dilutions of the test compound, starting at 10 μM. Following incubation of the cells for 3 days at 37° C. and 5% CO2, the effect of inhibitors on cell viability is quantified following addition of 50 μl CTG and luminescence measurement (integration time: 500 ms) as per vendor manual, using a correspondingly equipped multi-mode plate reader (M200Pro, TECAN, Switzerland). For data analysis, the assay background value determined in wells containing medium, but no cells, is subtracted from all data points. To enable differentiation of cytotoxic from cytostatic compounds, the number of viable cells is assessed relative to that observed at the time of compound addition using a separate cell plate (day 0). The effect of a particular test compound concentration on cell proliferation/viability is expressed as percentage of the background- and day 0-corrected luminescence reading obtained for cells treated with vehicle only (DMSO, 0.1% f.c.), which is set as 100%, whereas the luminescence reading for wells containing medium only, but no cells, is set as −100%. Compound concentrations leading to half-maximal growth inhibition (GI50) are determined using standard four parameter curve fitting (XLfit 5.2., IDBS, UK).

Sequence of BaF3-Tel-FGFR4 cells (TEL fused to cytoplasmic domain of FGFR4) (P22455 with tags, fused parts or gaps): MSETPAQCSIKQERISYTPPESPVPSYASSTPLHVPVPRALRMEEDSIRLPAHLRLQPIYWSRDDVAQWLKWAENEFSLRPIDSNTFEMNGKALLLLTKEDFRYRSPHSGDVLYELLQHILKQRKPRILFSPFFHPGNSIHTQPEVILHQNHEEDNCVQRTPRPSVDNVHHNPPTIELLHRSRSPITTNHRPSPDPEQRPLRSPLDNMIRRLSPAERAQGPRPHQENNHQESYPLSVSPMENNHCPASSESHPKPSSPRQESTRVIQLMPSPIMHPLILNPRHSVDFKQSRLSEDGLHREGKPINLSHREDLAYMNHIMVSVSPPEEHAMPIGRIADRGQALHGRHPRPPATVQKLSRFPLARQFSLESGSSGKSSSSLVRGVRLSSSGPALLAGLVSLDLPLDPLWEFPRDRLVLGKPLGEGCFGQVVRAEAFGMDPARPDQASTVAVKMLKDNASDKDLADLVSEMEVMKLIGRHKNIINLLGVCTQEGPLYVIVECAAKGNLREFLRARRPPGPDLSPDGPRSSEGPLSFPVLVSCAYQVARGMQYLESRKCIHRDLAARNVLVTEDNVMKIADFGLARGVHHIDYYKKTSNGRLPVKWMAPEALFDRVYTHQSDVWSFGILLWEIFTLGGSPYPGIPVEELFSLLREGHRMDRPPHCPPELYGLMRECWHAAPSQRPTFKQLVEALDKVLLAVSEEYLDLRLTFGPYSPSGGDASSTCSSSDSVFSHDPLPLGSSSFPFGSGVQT
T2 sequence (P22607 411-806): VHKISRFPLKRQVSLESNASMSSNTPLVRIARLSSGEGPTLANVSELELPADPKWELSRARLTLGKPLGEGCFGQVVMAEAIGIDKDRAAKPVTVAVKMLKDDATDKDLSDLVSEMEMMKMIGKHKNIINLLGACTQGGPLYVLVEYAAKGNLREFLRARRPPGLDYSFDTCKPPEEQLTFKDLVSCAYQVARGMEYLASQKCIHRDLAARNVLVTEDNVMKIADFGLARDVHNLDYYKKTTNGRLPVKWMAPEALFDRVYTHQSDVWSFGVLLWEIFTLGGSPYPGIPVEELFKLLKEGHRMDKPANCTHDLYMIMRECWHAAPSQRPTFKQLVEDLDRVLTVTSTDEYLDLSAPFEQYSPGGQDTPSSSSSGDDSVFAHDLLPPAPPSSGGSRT
T4 sequence (P11362 407-822): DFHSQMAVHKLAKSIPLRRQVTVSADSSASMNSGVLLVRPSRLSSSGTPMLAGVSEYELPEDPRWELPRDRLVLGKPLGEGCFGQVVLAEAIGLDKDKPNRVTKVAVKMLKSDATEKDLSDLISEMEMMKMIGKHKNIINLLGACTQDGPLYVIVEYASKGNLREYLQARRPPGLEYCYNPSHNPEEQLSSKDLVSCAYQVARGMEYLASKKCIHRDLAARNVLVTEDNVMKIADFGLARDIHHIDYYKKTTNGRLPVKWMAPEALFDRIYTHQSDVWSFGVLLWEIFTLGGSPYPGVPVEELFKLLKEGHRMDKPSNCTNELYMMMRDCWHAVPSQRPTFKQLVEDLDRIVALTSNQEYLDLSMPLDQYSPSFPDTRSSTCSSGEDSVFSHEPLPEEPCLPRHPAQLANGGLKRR
T1 sequence (P22455 388-802): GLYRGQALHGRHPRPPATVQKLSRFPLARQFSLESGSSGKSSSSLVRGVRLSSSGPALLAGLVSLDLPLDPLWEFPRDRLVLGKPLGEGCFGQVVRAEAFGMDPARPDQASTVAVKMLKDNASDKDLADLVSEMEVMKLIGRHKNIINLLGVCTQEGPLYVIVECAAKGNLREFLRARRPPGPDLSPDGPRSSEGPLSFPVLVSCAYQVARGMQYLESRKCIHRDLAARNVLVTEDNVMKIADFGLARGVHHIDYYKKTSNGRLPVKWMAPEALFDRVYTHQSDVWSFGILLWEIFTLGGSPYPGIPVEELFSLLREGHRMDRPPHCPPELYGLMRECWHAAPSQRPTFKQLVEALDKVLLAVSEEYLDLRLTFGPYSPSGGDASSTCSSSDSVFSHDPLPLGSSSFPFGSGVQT
T3 sequence (P21802 406-821): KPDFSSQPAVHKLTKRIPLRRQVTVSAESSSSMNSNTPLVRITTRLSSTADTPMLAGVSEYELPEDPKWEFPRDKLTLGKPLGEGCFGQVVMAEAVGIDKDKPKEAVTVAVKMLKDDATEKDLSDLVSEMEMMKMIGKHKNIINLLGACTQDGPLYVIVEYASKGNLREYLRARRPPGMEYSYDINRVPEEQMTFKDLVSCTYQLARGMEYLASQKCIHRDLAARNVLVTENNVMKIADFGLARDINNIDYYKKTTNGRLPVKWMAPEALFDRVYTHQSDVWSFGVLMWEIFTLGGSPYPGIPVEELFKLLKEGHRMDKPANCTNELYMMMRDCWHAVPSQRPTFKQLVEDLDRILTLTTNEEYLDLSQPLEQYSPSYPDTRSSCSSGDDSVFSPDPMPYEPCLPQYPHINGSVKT

CCN(C(=O)Nc1cc(NCCOC)c(C#N)cn1)c1ccc(-c2cnn(C)c2)c(C=O)n1 [Example 10, 3-(5-cyano-4-((2-methoxyethyl)amino)pyridin-2-yl)-1-ethyl-1-(6-formyl-5-(1-methyl-1H-pyrazol-4-yl)pyridin-2-yl)urea]
IC50 [1]: 1.09 µM
IC50 [2]: 0.013 µM
IC50 [3]: 0.01 µM

CC(C)Oc1cc(NC(=O)Nc2nccc(C=O)n2)ncc1C#N [Example 30, 1-(5-cyano-4-isopropoxypyridin-2-yl)-3-(4-formylpyrimidin-2-yl)urea]
IC50 [4]: > 10 µM
IC50 [5]: > 10 µM
IC50 [2]: 0.982 µM
IC50 [3]: 0.1 µM
IC50 [6]: > 10 µM
IC50 ([7]; Homo sapiens, Huh-7, 72 h): > 3 µM

CC(C)Oc1cc(NC(=O)N(C)c2ccc(C(F)F)c(C=O)n2)ncc1C#N [Example 18, 3-(5-cyano-4-isopropoxypyridin-2-yl)-1-(5-(difluoromethyl)-6-formylpyridin-2-yl)-1-methylurea]
IC50 [1]: 0.191 µM
IC50 [4]: > 10 µM
IC50 [5]: > 10 µM
IC50 [2]: 0.025 µM
IC50 [3]: 0.0019 µM
IC50 [6]: > 10 µM
IC50 ([7]; Homo sapiens, Huh-7, 72 h): 0.463 µM

COCCNc1cc(NC(=O)N(C)c2ccc(CN3CCCC3=O)c(C=O)n2)ncc1C#N [Example 20, 3-(5-cyano-4-((2-methoxyethyl)amino)pyridin-2-yl)-1-(6-formyl-5-((2-oxopyrrolidin-1-yl)methyl)pyridin-2-yl)-1-methylurea]
IC50 [4]: > 10 µM
IC50 [5]: > 10 µM
IC50 [2]: 0.0053 µM
IC50 [3]: 0.0043 µM
IC50 [6]: > 10 µM
IC50 ([7]; Homo sapiens, Huh-7, 72 h): 0.1 µM

CC(C)Oc1cc(NC(=O)N(C)c2ccc(CN3CCN(C)CC3)c(C=O)n2)ncc1C#N [Example 17, 3-(5-cyano-4-isopropoxypyridin-2-yl)-1-(6-formyl-5-((4-methylpiperazin-1-yl)methyl)pyridin-2-yl)-1-methylurea]
IC50 [4]: > 10 µM
IC50 [5]: > 10 µM
IC50 [2]: 0.145 µM
IC50 [3]: 0.029 µM
IC50 [6]: > 10 µM
IC50 ([7]; Homo sapiens, Huh-7, 72 h): 2.76 µM

COCCNc1cc(NC(=O)N(C)c2ccc(CN(C)C(C)=O)c(C=O)n2)ncc1C#N [Example 15, N-((6-(3-(5-cyano-4-((2-methoxyethyl)amino)pyridin-2-yl)-1-methylureido)-2-formylpyridin-3-yl)methyl)-N-methylacetamide]
IC50 [1]: 0.025 µM
IC50 [2]: 0.0048 µM
IC50 ([7]; Homo sapiens, Huh-7, 72 h): 0.106 µM

COCCNc1cc(Nc2ccnn2-c2ccc(-c3cnn(C)c3)c(C=O)n2)ncc1C(F)(F)F [Example 28, 6-(5-((4-((2-methoxyethyl)amino)-5-(trifluoromethyl)pyridin-2-yl)amino)-1H-pyrazol-1-yl)-3-(1-methyl-1H-pyrazol-4-yl)picolinaldehyde]
IC50 [4]: > 10 µM
IC50 [5]: > 10 µM
IC50 [2]: 2.64 µM
IC50 [3]: 0.48 µM
IC50 [6]: > 10 µM
IC50 ([7]; Homo sapiens, Huh-7, 72 h): > 3 µM
IC50 [7]: 2.66 µM

COCCNc1cc(NC(=O)N(C)c2ccc(C(=O)O)c(C=O)n2)ncc1C#N [Example 9, 6-(3-(5-cyano-4-((2-methoxyethyl)amino)pyridin-2-yl)-1-methylureido)-2-formylnicotinic acid]
IC50 [1]: > 3 µM
IC50 [2]: 1.27 µM
IC50 [3]: 0.0013 µM
IC50 ([7]; Homo sapiens, Huh-7, 72 h): > 3 µM

COCCNc1cc(NC(=O)N(C)c2ccc(C(F)F)c(C=O)n2)ncc1C#N [Example 16, 3-(5-cyano-4-((2-methoxyethyl)amino)pyridin-2-yl)-1-(5-(difluoromethyl)-6-formylpyridin-2-yl)-1-methylurea]
IC50 [1]: 0.051 µM
IC50 [4]: > 10 µM
IC50 [5]: > 10 µM
IC50 [2]: 0.0077 µM
IC50 [3]: 0.0027 µM
IC50 [6]: > 10 µM
IC50 ([7]; Homo sapiens, Huh-7, 72 h): 0.09 µM

COCCNc1cc(NC(=O)N(C)c2ccc(-c3cnn(C)c3)c(C=O)n2)ncc1C#N [Example 13, 3-(5-cyano-4-((2-methoxyethyl)amino)pyridin-2-yl)-1-methyl-1-(6-formyl-5-(1-methyl-1H-pyrazol-4-yl)pyridin-2-yl)urea]
IC50 [4]: > 10 µM
IC50 [5]: > 10 µM
IC50 [2]: 0.053 µM
IC50 [3]: 0.0058 µM
IC50 [6]: > 10 µM
IC50 ([7]; Homo sapiens, Huh-7, 72 h): 0.664 µM
